# US20230373985A1 (Origenis Gmbh, priority 2020, published 2023)
# Key:
# [1] = biological target: T1, wt human JAK1, catalytic site (Homo sapiens, UniProt P23458); assay: HTRF KinEASE assay, JAK1; format: biochemical; conditions: 2.5 μM ATP; read-out: IC50, Activity Toward JAK1
# T1 construct: wt human JAK1, catalytic site; purchased ThermoFisher
# Summary of the method: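 Compounds in DMSO dilution were mixed with kinase, biotin-TK substrate and ATP and reacted for ≥30 min at room temperature. Detection reagents (antibody, streptavidin-XL665) were read 60 min later as HTRF, with emission ratios analysed per KinEASE protocol.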
# [2] = biological target: T2, wt human NUAK1, full length (Homo sapiens, UniProt O60285); assay: TR-FRET LanthaScreen Eu Kinase Binding Assay, NUAK1; conditions: read-out: IC50, Activity Toward NUAK1
# T2 construct: 8 nM wt human NUAK1, full length (ThermoFisher/USA); purchased ThermoFisher
# T2 sequence (O60285 1-661): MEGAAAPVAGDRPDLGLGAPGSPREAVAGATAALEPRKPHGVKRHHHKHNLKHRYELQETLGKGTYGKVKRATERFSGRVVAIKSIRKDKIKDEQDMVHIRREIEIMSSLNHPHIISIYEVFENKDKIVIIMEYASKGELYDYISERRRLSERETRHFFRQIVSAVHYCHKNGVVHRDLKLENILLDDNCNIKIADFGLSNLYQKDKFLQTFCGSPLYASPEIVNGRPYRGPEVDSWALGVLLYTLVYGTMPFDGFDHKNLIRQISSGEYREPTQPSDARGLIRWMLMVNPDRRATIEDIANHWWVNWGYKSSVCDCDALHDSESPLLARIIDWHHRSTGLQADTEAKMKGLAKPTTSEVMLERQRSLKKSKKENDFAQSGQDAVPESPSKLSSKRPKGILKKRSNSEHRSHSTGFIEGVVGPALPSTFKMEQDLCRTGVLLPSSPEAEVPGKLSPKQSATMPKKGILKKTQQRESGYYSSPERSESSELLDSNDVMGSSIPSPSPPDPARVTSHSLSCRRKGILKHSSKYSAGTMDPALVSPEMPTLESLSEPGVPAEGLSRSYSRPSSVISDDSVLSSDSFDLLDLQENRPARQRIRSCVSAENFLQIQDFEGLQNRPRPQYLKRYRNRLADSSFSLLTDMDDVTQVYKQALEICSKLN
# Protocol: The basic protocol for TR-FRET LanthaScreen Eu Kinase Binding Assay inhibitor studies were performed as follows. LanthaScreen Kinase Binding Assays (ThermoFisher/USA) to evaluate inhibitors were performed by addition of 5 μL of test compound in corresponding DMSO dilutions/5 μl of kinase/antibody mixture, 5 μL of tracer into 384 well small volume plates. After incubation for 1 hour at room temperature, plates were read. Data analysis of emission ratios was according LanthaScreen Eu Kinase Binding Assay protocol.
# Kinase and assay components were adjusted to final concentrations according to kit protocol. For LRRK2: 5 nM wt human LRRK2, catalytic site, or G2019S human LRRK2, catalytic site (ThermoFisher/USA), 2 nM Eu-Anti-GST Antibody, 10 nM Kinase Tracer 236 in 1× Kinase Buffer A. For NUAK1: 8 nM wt human NUAK1, full length (ThermoFisher/USA), 2 nM Eu-Anti-His Antibody, 5 nM Kinase Tracer 236 in 1× Kinase Buffer A.
# [3] = biological target: T3, G2019S human LRRK2, catalytic site (Homo sapiens, UniProt Q5S007, G2019S); assay: TR-FRET LanthaScreen Eu Kinase Binding Assay, LRRK2 G2019S; conditions: LRRK2(G2019); one range stated for wt and G2019; read-out: IC50, Activity Toward LRRK2(G2019)
# T3 construct: G2019S human LRRK2, catalytic site; purchased ThermoFisher
# Summary of the method: (§1)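 Kinase Buffer A holding, as final levels, 8 nM full-length NUAK1, 2 nM Eu-anti-His antibody and 5 nM Tracer 236, or 5 nM LRRK2 catalytic site (wt or G2019S), 2 nM Eu-anti-GST and 10 nM Tracer 236. Compound added, then 1 h at room temperature before TR-FRET ratio readout.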
# [4] = biological target: T4, wt human LRRK2, catalytic site (Homo sapiens, UniProt Q5S007); assay: TR-FRET LanthaScreen Eu Kinase Binding Assay, LRRK2 wt; conditions: one range stated for wt and G2019, read-out: IC50, Activity Toward LRRK2(Wt)
# T4 construct: 5 nM wt human LRRK2, catalytic site; purchased ThermoFisher
# Summary of the method: as §1
# [5] = biological target: T5, wt human TYK2, catalytic site (Homo sapiens, UniProt P29597); assay: HTRF KinEASE assay, TYK2; format: biochemical; conditions: 1 μM ATP; read-out: IC50, Activity Toward TYK2
# T5 construct: wt human TYK2, catalytic site; purchased SignalChem
# T5 sequence (P29597 897-1176 limits assumed): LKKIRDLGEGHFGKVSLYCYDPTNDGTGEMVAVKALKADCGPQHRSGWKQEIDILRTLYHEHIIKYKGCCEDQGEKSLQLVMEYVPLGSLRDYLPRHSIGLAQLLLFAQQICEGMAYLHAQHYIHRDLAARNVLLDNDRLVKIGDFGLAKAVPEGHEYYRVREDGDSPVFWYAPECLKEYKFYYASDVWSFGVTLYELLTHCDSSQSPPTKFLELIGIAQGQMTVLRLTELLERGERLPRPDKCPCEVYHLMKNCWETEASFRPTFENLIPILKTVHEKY
# Summary of the method: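 Kinase reaction run at room temperature for at least 30 min: 2 nM TYK2 with 1 μM ATP, or 1 nM JAK2 with 100 μM ATP, each with 1 μM biotin-TK substrate. Phosphorylation detected by HTRF (60 min antibody/XL665) and evaluated from emission ratios.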
# T4 sequence (Q5S007 970-2527 limits assumed): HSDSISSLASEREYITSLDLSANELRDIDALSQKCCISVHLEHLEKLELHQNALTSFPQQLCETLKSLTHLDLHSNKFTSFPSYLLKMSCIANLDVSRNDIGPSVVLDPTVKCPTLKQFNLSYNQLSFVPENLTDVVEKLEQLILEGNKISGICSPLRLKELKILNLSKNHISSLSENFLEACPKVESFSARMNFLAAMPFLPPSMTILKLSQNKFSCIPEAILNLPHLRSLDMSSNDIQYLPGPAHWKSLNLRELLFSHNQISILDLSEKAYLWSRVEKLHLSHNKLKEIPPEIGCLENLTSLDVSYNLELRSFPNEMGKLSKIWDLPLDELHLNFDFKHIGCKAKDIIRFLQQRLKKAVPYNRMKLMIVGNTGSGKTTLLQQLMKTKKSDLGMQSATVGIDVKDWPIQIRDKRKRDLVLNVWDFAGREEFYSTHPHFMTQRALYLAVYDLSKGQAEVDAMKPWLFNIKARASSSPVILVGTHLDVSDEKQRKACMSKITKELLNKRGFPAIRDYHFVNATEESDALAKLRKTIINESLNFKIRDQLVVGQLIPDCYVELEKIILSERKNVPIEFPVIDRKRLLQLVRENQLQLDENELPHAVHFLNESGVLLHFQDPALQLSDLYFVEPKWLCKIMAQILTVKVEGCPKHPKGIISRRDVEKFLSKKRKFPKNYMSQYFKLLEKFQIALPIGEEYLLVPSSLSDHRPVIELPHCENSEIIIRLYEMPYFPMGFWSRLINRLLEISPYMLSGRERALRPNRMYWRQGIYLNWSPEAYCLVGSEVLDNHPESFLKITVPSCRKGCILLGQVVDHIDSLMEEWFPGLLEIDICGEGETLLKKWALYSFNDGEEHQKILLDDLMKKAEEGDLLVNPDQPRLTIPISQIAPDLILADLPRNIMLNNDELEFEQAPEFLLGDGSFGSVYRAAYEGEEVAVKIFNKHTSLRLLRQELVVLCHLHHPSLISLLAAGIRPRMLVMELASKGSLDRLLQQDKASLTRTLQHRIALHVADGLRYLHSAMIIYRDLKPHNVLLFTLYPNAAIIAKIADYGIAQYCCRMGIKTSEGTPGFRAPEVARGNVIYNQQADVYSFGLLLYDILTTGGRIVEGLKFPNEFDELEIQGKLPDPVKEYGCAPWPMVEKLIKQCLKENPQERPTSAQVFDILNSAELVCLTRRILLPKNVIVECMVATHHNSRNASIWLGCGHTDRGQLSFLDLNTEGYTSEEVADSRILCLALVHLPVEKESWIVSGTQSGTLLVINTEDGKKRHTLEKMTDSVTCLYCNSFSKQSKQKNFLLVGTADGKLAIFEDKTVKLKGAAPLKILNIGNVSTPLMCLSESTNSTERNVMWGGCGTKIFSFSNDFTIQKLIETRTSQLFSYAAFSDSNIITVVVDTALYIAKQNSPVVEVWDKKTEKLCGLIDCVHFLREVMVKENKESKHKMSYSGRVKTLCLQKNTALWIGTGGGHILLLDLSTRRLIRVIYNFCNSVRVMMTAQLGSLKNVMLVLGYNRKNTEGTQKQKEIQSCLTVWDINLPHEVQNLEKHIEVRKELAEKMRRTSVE
# T1 sequence (P23458 875-1153 limits assumed): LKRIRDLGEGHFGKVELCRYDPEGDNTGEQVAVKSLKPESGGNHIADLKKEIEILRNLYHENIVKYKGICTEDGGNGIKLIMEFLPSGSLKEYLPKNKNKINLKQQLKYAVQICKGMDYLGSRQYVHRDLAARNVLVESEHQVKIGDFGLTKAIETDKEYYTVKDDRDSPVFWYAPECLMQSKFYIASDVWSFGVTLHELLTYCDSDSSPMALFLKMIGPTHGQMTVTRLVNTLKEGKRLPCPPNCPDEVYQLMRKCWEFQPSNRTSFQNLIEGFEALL
# T3 sequence (Q5S007 970-2527 G2019S limits assumed): as the sequence (Q5S007 970-2527 limits assumed) above, with G1050S counted along it
SMILES,IC50 [1] [nM],IC50 [2] [nM],IC50 [3] [nM],IC50 [4] [nM],IC50 [5] [nM]
"NC(=O)c1nn(-c2c(Cl)cccc2Cl)cc1Nc1ccc(C(=O)N2CCC(N3CCCC3)C2)cc1 (stereo not shown) [compound 249, 4-((4-([1,3′-bipyrrolidine]-1′-carbonyl)phenyl)amino)-1-(2,6-dichlorophenyl)-1H-pyrazole-3-carboxamide]",100 to 1000,100 to 1000,100 to 1000,100 to 1000,< 10
CCc1nc(C(F)(F)F)nn1-c1ccc(Nc2cn(-c3c(F)cccc3F)nc2C(N)=O)cc1 [compound 284],100 to 1000,100 to 1000,100 to 1000,100 to 1000,10 to 100
"CCc1ccnn1-c1ccc(Nc2cn(-c3c(F)cccc3Cl)nc2C(N)=O)cc1 [compound 286, 1-(2-chloro-6-fluorophenyl)-4-((4-(5-ethyl-1H-pyrazol-1-yl)phenyl)amino)-1H-pyrazole-3-carboxamide]",100 to 1000,100 to 1000,100 to 1000,100 to 1000,10 to 100
"CCc1ccnn1-c1ccc(Nc2cn(-c3c(F)cccc3F)nc2C(N)=O)cc1 [compound 287, 1-(2,6-difluorophenyl)-4-((4-(5-ethyl-1H-pyrazol-1-yl)phenyl)amino)-1H-pyrazole-3-carboxamide]",100 to 1000,10 to 100,100 to 1000,100 to 1000,100 to 1000
"CN1CCC(Oc2ccc(Nc3cn(-c4c(F)cccc4F)nc3C(N)=O)cc2)CC1 [compound 288, 1-(2,6-difluorophenyl)-4-((4-((1-methylpiperidin-4-yl)oxy)phenyl)amino)-1H-pyrazole-3-carboxamide]",100 to 1000,10 to 100,100 to 1000,100 to 1000,10 to 100
"Cc1ccnnc1-c1ccc(Nc2cn(-c3c(F)cccc3F)nc2C(N)=O)cc1 [compound 296, 1-(2,6-difluorophenyl)-4-((4-(4-methylpyridazin-3-yl)phenyl)amino)-1H-pyrazole-3-carboxamide]",100 to 1000,100 to 1000,100 to 1000,100 to 1000,10 to 100
"Cn1cc(C(F)(F)F)nc1-c1ccc(Nc2cn(-c3c(F)cccc3F)nc2C(N)=O)cc1 [compound 308, 1-(2,6-difluorophenyl)-4-((4-(1-methyl-4-(trifluoromethyl)-1H-imidazol-2-yl)phenyl)amino)-1H-pyrazole-3-carboxamide]",10 to 100,100 to 1000,100 to 1000,100 to 1000,10 to 100
"CC(C)n1ncnc1-c1ccc(Nc2cn(-c3c(F)cccc3F)nc2C(N)=O)cc1 [compound 309, 1-(2,6-difluorophenyl)-4-((4-(1-isopropyl-1H-1,2,4-triazol-5-yl)phenyl)amino)-1H-pyrazole-3-carboxamide]",100 to 1000,100 to 1000,10 to 100,10 to 100,100 to 1000
"CN(C)[C@@H]1CCN(C(=O)c2ccc(Nc3cn(-c4c(Cl)cccc4Cl)nc3C(N)=O)cc2)C1 [compound 313, (R)-1-(2,6-dichlorophenyl)-4-((4-(3-(dimethylamino)pyrrolidine-1-carbonyl)phenyl)amino)-1H-pyrazole-3-carboxamide]",10 to 100,100 to 1000,100 to 1000,100 to 1000,10 to 100
"NC(=O)c1nn(-c2c(Cl)cccc2Cl)cc1Nc1ccc(C(=O)N2CCC(N)C2)cc1 (stereo not shown) [compound 317, 4-((4-(3-aminopyrrolidine-1-carbonyl)phenyl)amino)-1-(2,6-dichlorophenyl)-1H-pyrazole-3-carboxamide]",10 to 100,100 to 1000,100 to 1000,100 to 1000,10 to 100
"NC(=O)c1nn(-c2c(Cl)cccc2Cl)cc1Nc1ccc(C(=O)N2CC[C@@H](N)C2)cc1 [compound 318, (R)-4-((4-(3-aminopyrrolidine-1-carbonyl)phenyl)amino)-1-(2,6-dichlorophenyl)-1H-pyrazole-3-carboxamide]",10 to 100,100 to 1000,100 to 1000,100 to 1000,10 to 100
"CC(C)(C)OC(=O)NC1CCN(C(=O)c2ccc(Nc3cn(-c4c(Cl)cccc4Cl)nc3C(N)=O)cc2)C1 (stereo not shown) [compound 323, tert-butyl_(1-(4-((3-carbamoyl-1-(2,6-dichlorophenyl)-1H-pyrazol-4-yl)amino)benzoyl)pyrrolidin-3-yl)carbamate]",100 to 1000,100 to 1000,100 to 1000,100 to 1000,10 to 100

# Results, then the compound that gave them:
IC50 [1] [nM],IC50 [2] [nM],IC50 [3] [nM],IC50 [4] [nM],IC50 [5] [nM],SMILES
10 to 100,100 to 1000,100 to 1000,100 to 1000,< 10,"NC(=O)c1nn(-c2c(Cl)cccc2Cl)cc1Nc1ccc(-c2nccn2CC(F)F)cc1 [compound 230, 1-(2,6-dichlorophenyl)-4-((4-(1-(2,2-difluoroethyl)-1H-imidazol-2-yl)phenyl)amino)-1H-pyrazole-3-carboxamide]"
10 to 100,100 to 1000,100 to 1000,100 to 1000,10 to 100,"Cc1ccn(-c2ccc(Nc3cn(-c4c(F)cccc4Cl)nc3C(N)=O)cc2)n1 [compound 232, 1-(2-chloro-6-fluorophenyl)-4-((4-(3-methyl-1H-pyrazol-1-yl)phenyl)amino)-1H-pyrazole-3-carboxamide]"
10 to 100,100 to 1000,100 to 1000,100 to 1000,10 to 100,"CN(C)C1CCN(C(=O)c2ccc(Nc3cn(-c4c(Cl)cccc4Cl)nc3C(N)=O)cc2)C1 (stereo not shown) [compound 248, 1-(2,6-dichlorophenyl)-4-((4-(3-(dimethylamino)pyrrolidine-1-carbonyl)phenyl)amino)-1H-pyrazole-3-carboxamide]"
10 to 100,100 to 1000,100 to 1000,100 to 1000,10 to 100,"Cn1nc(C(F)(F)F)nc1-c1ccc(Nc2cn(-c3c(F)cccc3F)nc2C(N)=O)cc1 [compound 285, 1-(2,6-difluorophenyl)-4-((4-(1-methyl-3-(trifluoromethyl)-1H-1,2,4-triazol-5-yl)phenyl)amino)-1H-pyrazole-3-carboxamide]"
10 to 100,10 to 100,100 to 1000,100 to 1000,10 to 100,"CN1CCC(Oc2ccc(Nc3cn(-c4c(F)cccc4Cl)nc3C(N)=O)cc2)CC1 [compound 295, 1-(2-chloro-6-fluorophenyl)-4-((4-((1-methylpiperidin-4-yl)oxy)phenyl)amino)-1H-pyrazole-3-carboxamide]"
